In data set [1] the test system is primary human dermal fibroblasts (HDF). Description: Primary human dermal fibroblast (HDF) proliferation assay (2D), with or without wound exudate. The format is cell-based. The settings on record: for HDF proliferation, PARP inhibitor alone: talazoparib 1 μM. The procedure:
(§1) Primary human dermal fibroblasts (HDF) were purchased from CELLnTEC, Bern. They were routinely grown in Dulbecco's modified Eagle's medium (DMEM) containing 10% FCS, 2 mM glutamine, and 100 U/ml penicillin/100 μg/ml streptomycin. Media, antibiotics, and glutamine were bought from Lonza. The cells were used at passage 5-15. Cells were trypsinized and seeded at 5000 cells/well in 200 μl into the inner wells of 96-well plates. The outer wells were loaded with sterile water. The cells were allowed to adhere overnight and then incubated for 72 hours at 37° C. under the following conditions: graded compound concentrations or 20 ng/ml PDGF-BB (Tonbo Biosciences) in the absence or presence of different dilutions of sterile-filtered WE in medium. For control samples, 200p1 medium was added instead of specific stimuli. Alternatively, the cells were seeded into 384-well plates at 2500 cells/well directly together with test compounds or growth factors and WE or medium in a total volume of […].
(§2) At the end of the 72-hour incubation period, supernatants were removed for the determination of IL-1ß, and the cells were fixed with 4% paraformaldehyde (Morphisto) for 15 minutes at room temperature and washed 3 times with PBS. A control plate was fixed after the overnight adherence of the cells (day 1) to determine the starting cell number.
Total cellular protein was determined as a measure of cell number by staining the fixed cells with sulforhodamine B (SRB, Sigma). A 0.4% SRB solution in 1% acetic acid was added to the wells for 30 minutes. The wells were then washed with 1 acetic acid until the wash solution remained colorless. After drying, the dye was eluted with 10 mM Tris.HCl, pH8.5, and absorbance was measured either at 550 or 492 nm for lower and higher cell densities, respectively. The average absorbance of the sample representing the day 1 starting cell number (for 96-well plates) was subtracted from the absorbance values of the WE-treated cells.
All experiments were carried out in triplicate for each sample and concentration, and means±standard deviation (SD) were used for the evaluation of the experiment. Results are expressed as percentage of control values for unstimulated cells.
Low molecular weight compounds (see list in Table 1) were dissolved in DMSO (Bioreagent for cell culture, Sigma) at 10 mM or 100 mM and diluted at least 1:1000 in medium for cellular assays (final DMSO concentration ≤0.1%).
(§3) Cells were incubated with compounds for 72 hours in proliferation assays and up to 8 days for FDM assay (refreshed after 4 days). When compounds were tested for their effect on WE stimulation, the incubation of cells with compounds was started and ended simultaneously with WE-incubation.

In the next data set the test system is cells. Description: Titration to reveal potential toxic effects on cells. The note with it: titrated on cells. The format is cell-based. The procedure:
Mifepristone, a glucocorticoid and progesterone receptor antagonist, was titrated to reveal potential toxic effects on cells and then used at the well tolerated concentration of 1 μM to counteract glucocorticoid- and progesterone-type compounds (dexamethasone, prednisolone, medroxyprogesterone, etc.). Protein growth factors (see list in Table 1) were dissolved according to the manufacturers' recommendations and used at final concentrations ranging from 0.02 to 1000 ng/ml.

For data set [2], the system named is primary human dermal fibroblasts (HDF). Description: Fibroblast-derived matrix (FDM) formation assay (3D), with or without wound exudate. The class given is cell-based. The note with it: for fibroblast-derived matrix (FDM) formation: presence of WE #78 (FIG. 9). The method, then: HDF cells were seeded at 5000 cells/well on day −3 into 96-well tissue culture plates (1250 cells/well for 384-well plates), which had been pre-coated for 1 hour at 37° C. with 0.2% gelatin solution (Sigma). When the cells reached confluence (=day 0), a matrix promoting supplement (vitamin C: 2-phospho-L-ascorbic acid trisodium salt, 100 μg/ml; Sigma) was added together with test samples containing PDGF-BB, TGF-ß1 or graded concentrations of compounds −/+WE as described for the HDF proliferation assay. After 4 days, medium was replaced by fresh vitamin C- and stimulus- as well as compound-containing medium, maintaining the conditions initiated on day 0. TGF-ß1 and PDGF-BB were included as positive controls to promote FDM formation and cell growth, respectively. After a total incubation time of 8 days, FDM production was measured in fixed cultures via SRB staining and evaluated as described above. In some cases, the experiment was stopped and evaluated already on day 4.
Low molecular weight compounds (see list in Table 1) were dissolved in DMSO (Bioreagent for cell culture, Sigma) at 10 mM or 100 mM and diluted at least 1:1000 in medium for cellular assays (final DMSO concentration ≤0.1%). Compounds were typically tested in half-logarithmic dilution series (1:3.33), starting at 10 μM or 100 μM as the highest compound concentration.
as §3

The test system of another data set is IL-1α. Description: Fibroblast-macrophage coculture with wound exudate: IL-1α. The class given is cell-based, human. The settings on record: WE #78; veliparib 10 μM, talazoparib 0.1 μM. The procedure:
CD14^+ monocytes, isolated from PBMC of healthy donors by magnetic bead separation were incubated either alone or in the presence of primary human dermal fibroblasts (CelINTec) or fibroblast-derived matrices (FDM). FDM had been generated from primary human dermal fibroblasts by a 3-week incubation with the growth supplements vitamin C or insulin and EGF (vitamin C: 2-phospho-L-ascorbic acid trisodium salt, 100 μg/ml; human EGF, 5 ng/ml; human insulin, 5 μg/ml). Alternatively, fibroblast monolayer cultures can be used as well. After 4 days to a week to allow for macrophage differentiation in the presence or absence of M-CSF (25 ng/ml), the cultures were stimulated overnight with graded concentrations of test compounds in the absence or presence of various dilutions of sterile-filtered WE. IFN-g (50 ng/ml), LPS (100 ng/ml) and IL-4 (25 ng/ml) or combinations thereof served as controls for M1 and M2 macrophage induction. For negative control samples, medium was added instead of specific stimuli. WE were added to the culture medium for overnight stimulation at dilutions ranging from 1:25 to 1:100.
Supernatants were harvested and frozen for cytokine determination by ELISA, and cells were harvested and subjected to FACS analysis, gating on the monocyte population. Geometric means or mean fluorescence intensities (MFI) were used to quantify surface marker expression. […]

For a further data set, the system named is IL-1ß. Kind of data set: IL-1ß secretion by HDF in the presence of wound exudate (ELISA). The class given is cell-based, human. The settings on record: FIG. 22; WE #43 and #78 used with veliparib. The method, then: as §1, §2
IL-1ß levels were determined with a commercial ELISA kit. The amount of IL-1ß contained in the wound exudate added to the cells was subtracted from the total IL-ß in the supernatants in order to determine the cytokine secreted by the cells.
In general terms: In an ELISA, binding on a coated surface is turned into a signal by an enzyme label.

Data set [3] relates to alpha-smooth muscle actin (α-SMA). Description: Immunolocalization of alpha-smooth muscle actin in 2D fibroblast culture (myofibroblast differentiation). The class given is cell-based, human. The settings on record: TGF-ß 20 ng/ml. The method, then: as §1, with “The cells were allowed to adhere overnight and then incubated for 72 hours at 37° C. under the following conditions: graded compound concentrations or 20 ng/ml PDGF-BB (Tonbo Biosciences) in the absence or presence of different dilutions of sterile-filtered WE in medium.” left out
After fixation with paraformaldehyde, the cells were incubated for 1 hour at room temperature with a monoclonal mouse-anti-human antibody against alpha-smooth muscle actin (α-SMA) from e-Bioscience, washed 3 times with PBS and developed with an Alexa Fluor-labelled donkey-anti-mouse IgG (Molecular Probes). The cells were washed 3 times with PBS and examined in a Zeiss ZEISS Observer.Z1 microscope, using the software AxioVision 48.

The values that follow come from patent US20200129476A1, “PARP Inhibitor in Combination with a Glucocorticoid and/or Ascorbic Acid and/or a Protein Growth Factor for the Treatment of Impaired Wound Healing” (AKRIBES BIOMEDICAL GMBH, priority 2017, published 2020).

Entries after “also recorded” stand apart in the source; their conditions may differ.

Take `CC#C[C@]1(O)CC[C@H]2[C@@H]3CCC4=CC(=O)CCC4=C3[C@@H](c3ccc(N(C)C)cc3)C[C@@]21C` [mifepristone, Mifepristone]: the “reversal of glucocorticoid effects on HDF proliferation” value in data set [1] (mifepristone as antagonist, WE present) is on record as “reversible”. For the same compound, in the data set on cells, the well tolerated concentration amounted to 1 µM.

As to `Cn1ncnc1[C@H]1c2n[nH]c(=O)c3cc(F)cc(c23)N[C@@H]1c1ccc(F)cc1` [talazoparib], the “fibroblast-derived matrix (FDM) formation” value in data set [2] is “strong positive effect”; in data set [2] (listed as Talazoparib), “most active of the PARP inhibitors tested in 3D culture”. In addition, the “fibroblast-derived matrix (FDM/ECM) formation” value in data set [2] (presence of wound exudate, WE not specified (FIG. 6: microscopy)) is ““cleaned up” WE-induced fibroblast matrix inhibition”. The “cell proliferation under wound exudate-induced inhibition” value in data set [1] (FIG. 22, WE #43 and #78 used with veliparib) is recorded as “enhanced cell proliferation”. Besides, the “HDF proliferation, PARP inhibitor plus PDGF” value is given as “even further enhanced by the addition of PDGF” in data set [1] (PARP inhibitor dose series + PDGF 20 ng/ml, WE #78 (FIG. 18)) and “additively or synergistically enhanced by PDGF” in data set [1] (veliparib 10 μM, talazoparib 1 μM + PDGF 20 ng/ml, WE #78 (FIG. 17B)). Also, the results for the “fibroblast (HDF) proliferation” value in data set [1] (presence of WE #43) and in data set [1] (presence of WE #78 (diabetic patient)) were “strongly beneficial effects” and “strongly beneficial effects; also recorded: dose-dependent increase of HDF proliferation”, respectively. Besides, the HDF proliferation entry in data set [1] (talazoparib 0.3 μM, WE #78 (FIG. 19)) is “rescues the cells from the inhibitory effect of the WE; also recorded: rescued the cells from the inhibitory effect of the wound exudate”. The “HDF proliferation, PARP inhibitor alone” value in data set [1] (veliparib 10 μM, WE #78 (FIG. 17B)) is listed as “induce proliferation”; in data set [1] (veliparib 10 μM, absence of WE (FIG. 17A)), “no or even an inhibitory effect on fibroblasts on their own”. Also, in the data set with IL-1α, the “IL-1α induced by wound exudate” value is recorded as “reduced”. Also, the “IL-1ß secretion induced by wound exudate” value in the data set with IL-1ß is “reducing IL-1ß secretion”.

Turning to “TGF-ß: Transforming growth factor beta, protein growth factor”, the “staining for α-SMA” value is listed as “increased the staining for the myofibroblast marker alpha-smooth muscle actin (α-SMA)” in data set [3] (absence of WE, veliparib 10 μM) and “does not induce α-SMA on its own; also recorded: did not induce α-SMA on its own” in data set [3] (presence of WE #78).
